How the values were obtained:
[1] = tested on: Mab 2G12; assay: BIACore (SPR) binding of Mab 2G12 to biotinylated synthetic mimotope peptides on streptavidin chip; design: species or system human; settings: synthetic biotinylated mimotope peptide (500 μg/ml) on streptavidin chip; 100 μl Mab 2G12 at 0.25 μg/μl, 5 μl/min
Experimental: Surface plasmon resonance was also used to confirm the binding of synthetic mimotope peptides identified from the panning procedure described in Example 2 to Mab 2G12. In this assay, a solution of biotinylated mimotope peptide is injected into a flowcell containing a BIACore chip coated with streptavidin. The biotin-streptavidin interaction immobilizes the synthetic mimotope peptide on the chip surface. Mab 2G12 is then injected into the flowcell to determine if the antibody recognizes and is captured by the bound mimotope. Specifically, the streptavidin BIACore chip was warmed to room temperature for 30 minutes. The chip was then docked and primed 2× with HBS-EP (0.01M HEPES, pH 7.4, 0.15M NaCl, 3 mM EDTA, 0.005% Surfactant P20) and conditioned for three cycles with 1M NaCl/50 mM NaOH. Each synthesized, biotinylated mimotope peptide was diluted 1:2 in HBS (0.01M HEPES, pH 7.4) to a final concentration of 500 μg/ml. Seventy-five microliters of each mimotope peptide was then injected into the flowcell at a flow rate of 5 μl/min. Mab 2G12 was resuspended in sterile water to a concentration of 0.25 μg/μl, and 100 μl of the antibody was injected into the flowcell containing the captured synthetic peptide at a flow rate of 5 μl/min. The captured Mab2G12 was measure in RUs. Of the mimotopes tested by this procedure, the synthetic peptide represented by SEQ ID NO:3, WKIPDHGIVVFSWFP, bound Mab 2G12 the tightest at 1193 RUs. In comparison, RSGHKVWVVSTKESS (SEQ ID NO:1) bound at 117 RUs, VLRLMECHFQCVPSL (SEQ ID NO:4) bound at 133 RUs, and TLKSLPYRAVLGAQA (SEQ ID NO:5) bound at 37 RUs. […] Thus, the mimotope represented by SEQ ID NO:2 binds to Mab 2G12 more efficiently as a multivalent structure (e.g., when within the pIII on the tip of the filamentous phage particle).

[2] = tested on: Mab 2G12; assay: BIACore (SPR) binding of Mab 2G12 to mimotopes displayed on phage captured by anti-M13 antibody; design: species or system human; settings: round three phage-displayed mimotope (pIII) captured via anti-M13 on RAMFc CM5 chip; 25 μl Mab 2G12 at 100 μg/ml
Experimental: BIACore confirmation of mimotope binding to Mab 2G12 was determined for four of the identified peptide sequences disclosed in the present application. For the first assay, a batch of individually selected phage was prepared from the transduced E. coli cells described in Example 2. The phage were concentrated by PEG precipitation to be used in the assay. Initially, a murine anti-phage pVIII monoclonal antibody (anti-M13) is captured by a BIACore CM5 chip that is coated with a standard rabbit anti-mouse (Fc) antibody (RAMFc). The anti-M13 antibody captures the chimeric phage selected from the panning procedure described in Example 2. Mab 2G12 is then flowed over the chip in order to describe and confirm binding of the antibody to the captured chimeric phage pIII.
Specifically, RAMFc was first immobilized on the gold surface of the BIACore CM5 chip (Uppsala, Sweden) containing dextran by amine coupling. Twenty-five microliters of anti-M13 antibody (Amersham Pharmacia Biotech, Piscataway, N.J.), at 1 mg/ml, was injected into the flowcell containing the chip at a flow rate of […] and captured by the immobilized RAMFc. The captured anti-M13 was measured in resonance units (RU). After completing the initial control tests of the flowcell, the chip was regenerated by injecting 10 μl of 20 mM HCL, 3 times, into the flowcell. To determine whether Mab 2G12 can detect the mimotopes isolated in the panning procedure described herein, 25 μl of anti-M13 at 1 mg/ml was first injected into the flowcell. Fifty microliters of the round three phage preparation of the mimotope sequence identified by SEQ ID NO:3, WKIPDHGIVVFSWFP, at >1×10^10 phage particles per ml, was injected into the flowcell. This was followed by 25 μl of Mab 2G12 at 100 μg/ml. The amount of Mab 2G12 captured on the chip was subsequently measured in RUs. This procedure was repeated for the following round three mimotopes: RSGHKVWVVSTKESS (SEQ ID NO:1), KCCFAESSRSGTGRY (SEQ ID NO:2) and VLRLMECHFQCVPSL (SEQ ID NO:4). […] Of the four mimotopes tested by this procedure, RSGHKVWVVSTKESS (SEQ ID NO:1) bound Mab 2G12 the tightest at 312 RUs. In comparison, KCCFAESSRSGTGRY (SEQ ID NO:2) bound at 120 RUs, WKIPDHGIVVFSWFP (SEQ ID NO:3) bound at 24 RUs, and VLRLMECHFQCVPSL (SEQ ID NO:4) bound at 17 RUs.

Sequence	captured Mab 2G12 [1]	amount of Mab 2G12 captured on the chip [2]
KCCFAESSRSGTGRY (Synthetic peptide mimotope) [SEQ ID NO:2]	no binding	120 RUs
RSGHKVWVVSTKESS (Synthetic peptide mimotope) [SEQ ID NO:1]	117 RUs	312 RUs
TLKSLPYRAVLGAQA (Synthetic peptide mimotope) [SEQ ID NO:5]	37 RUs	
VLRLMECHFQCVPSL (Synthetic peptide mimotope) [SEQ ID NO:4]	133 RUs	17 RUs
WKIPDHGIVVFSWFP (Synthetic peptide mimotope) [SEQ ID NO:3]	1193 RUs	24 RUs

— patent US20060094017A1, “Immunogens for hiv vaccine” (priority 2003, published 2006)
